Test results published in ChEMBL document CHEMBL1201862, “PubChem BioAssay data set” (2004).
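96-well plates; 48 h exposure; 5 concentrations. Endpoints by linear interpolation between flanking doses. Not reached: highest tested concentration assigned. The concentration for 50% growth inhibition is given as GI50.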 The source made the active and inactive calls. Cut-off read from the data, not from the text of the source: active = GI50 up to about 1.1 µM and inactive = higher.

Key:
Test in all cases: growth of human tumour cells (NCI), 48 h
RPMI-8226 = tested on: RPMI-8226
DU-145 = tested on: DU-145
RXF 393 = tested on: RXF 393
HOP-62 = tested on: HOP-62
SF-295 = tested on: SF-295
COLO 205 = tested on: COLO 205
SR = tested on: SR
KM12 = tested on: KM12
OVCAR-3 = tested on: OVCAR-3
MOLT-4 = tested on: MOLT-4
SNB-75 = tested on: SNB-75
UACC-62 = tested on: UACC-62
SF-268 = tested on: SF-268
SNB-19 = tested on: SNB-19
MDA-N = tested on: MDA-N
SK-MEL-2 = tested on: SK-MEL-2
NCI-H226 = tested on: NCI-H226
Hs-578T = tested on: Hs-578T
OVCAR-5 = tested on: OVCAR-5
SK-MEL-5 = tested on: SK-MEL-5
UO-31 = tested on: UO-31
NCI-H23 = tested on: NCI-H23
ACHN = tested on: ACHN
PC-3 = tested on: PC-3
BT-549 = tested on: BT-549
HT-29 = tested on: HT-29
SW-620 = tested on: SW-620
SN12C = tested on: SN12C
CAKI-1 = tested on: CAKI-1
HCT-116 = tested on: HCT-116
NCI-H460 = tested on: NCI-H460
T47D = tested on: T47D
SF-539 = tested on: SF-539
HOP-92 = tested on: HOP-92
M14 = tested on: M14
MDA-MB-231 = tested on: MDA-MB-231
786-0 = tested on: 786-0
K562 = tested on: K562
EKVX = tested on: EKVX
MCF7 = tested on: MCF7
LOX IMVI = tested on: LOX IMVI
UACC-257 = tested on: UACC-257
HCT-15 = tested on: HCT-15
IGROV-1 = tested on: IGROV-1
OVCAR-8 = tested on: OVCAR-8
TK-10 = tested on: TK-10
NCI/ADR-RES = tested on: NCI/ADR-RES
U-251 = tested on: U-251
A498 = tested on: A498
MDA-MB-435 = tested on: MDA-MB-435
SK-OV-3 = tested on: SK-OV-3
SK-MEL-28 = tested on: SK-MEL-28
HL-60 = tested on: HL-60
A549 = tested on: A549
OVCAR-4 = tested on: OVCAR-4
NCI-H522 = tested on: NCI-H522
Malme-3M = tested on: Malme-3M
HCC 2998 = tested on: HCC 2998
CCRF-CEM = tested on: CCRF-CEM

SMILES: O=S(=O)(O)n1ccnc1
- GI50 (RPMI-8226): > 100 µM (inactive)
- GI50 (DU-145): > 100 µM (inactive)
- GI50 (RXF 393): > 100 µM (inactive)
- GI50 (HOP-62): > 100 µM (inactive)
- GI50 (SF-295): > 100 µM (inactive)
- GI50 (COLO 205): > 100 µM (inactive)
- GI50 (SR): > 100 µM (inactive)
- GI50 (KM12): > 100 µM (inactive)
- GI50 (OVCAR-3): > 100 µM (inactive)
- GI50 (MOLT-4): > 100 µM (inactive)
- GI50 (SNB-75): > 100 µM (inactive)
- GI50 (UACC-62): > 100 µM (inactive)
- GI50 (SF-268): > 100 µM (inactive)
- GI50 (SNB-19): > 100 µM (inactive)
- GI50 (MDA-N): > 100 µM (inactive)
- GI50 (SK-MEL-2): 77.3 µM (inactive)
- GI50 (NCI-H226): > 100 µM (inactive)
- GI50 (Hs-578T): > 100 µM (inactive)
- GI50 (OVCAR-5): > 100 µM (inactive)
- GI50 (SK-MEL-5): > 100 µM (inactive)
- GI50 (UO-31): > 100 µM (inactive)
- GI50 (NCI-H23): > 100 µM (inactive)
- GI50 (ACHN): > 100 µM (inactive)
- GI50 (PC-3): > 100 µM (inactive)
- GI50 (BT-549): > 100 µM (inactive)
- GI50 (HT-29): > 100 µM (inactive)
- GI50 (SW-620): > 100 µM (inactive)
- GI50 (SN12C): > 100 µM (inactive)
- GI50 (CAKI-1): > 100 µM (inactive)
- GI50 (HCT-116): > 100 µM (inactive)
- GI50 (NCI-H460): > 100 µM (inactive)
- GI50 (T47D): > 100 µM (inactive)
- GI50 (SF-539): > 100 µM (inactive)
- GI50 (HOP-92): > 100 µM (inactive)
- GI50 (M14): > 100 µM (inactive)
- GI50 (MDA-MB-231): > 100 µM (inactive)
- GI50 (786-0): > 100 µM (inactive)
- GI50 (K562): > 100 µM (inactive)
- GI50 (EKVX): > 100 µM (inactive)
- GI50 (MCF7): > 100 µM (inactive)
- GI50 (LOX IMVI): > 100 µM (inactive)
- GI50 (UACC-257): > 100 µM (inactive)
- GI50 (HCT-15): > 100 µM
- GI50 (IGROV-1): > 100 µM (inactive)
- GI50 (OVCAR-8): > 100 µM (inactive)
- GI50 (TK-10): > 100 µM (inactive)
- GI50 (NCI/ADR-RES): > 100 µM (inactive)
- GI50 (U-251): > 100 µM (inactive)
- GI50 (A498): > 100 µM (inactive)
- GI50 (MDA-MB-435): > 100 µM (inactive)
- GI50 (SK-OV-3): > 100 µM (inactive)
- GI50 (SK-MEL-28): > 100 µM (inactive)
- GI50 (HL-60): > 100 µM (inactive)
- GI50 (A549): > 100 µM (inactive)
- GI50 (OVCAR-4): > 100 µM (inactive)
- GI50 (NCI-H522): > 100 µM (inactive)
- GI50 (Malme-3M): > 100 µM (inactive)

SMILES: Oc1c(C2=NNC(c3cccs3)C2)ccc2ccccc12 (centres undefined)
- GI50 (RPMI-8226): 17.7 µM (inactive)
- GI50 (DU-145): 20.9 µM (inactive)
- GI50 (RXF 393): 42.6 µM (inactive)
- GI50 (HOP-62): 26.9 µM (inactive)
- GI50 (SF-295): 18.2 µM (inactive)
- GI50 (COLO 205): 19.5 µM (inactive)
- GI50 (SR): 8.89 µM (inactive)
- GI50 (KM12): 12 µM (inactive)
- GI50 (OVCAR-3): 18 µM (inactive)
- GI50 (MOLT-4): 10.1 µM (inactive)
- GI50 (SNB-75): 21.3 µM (inactive)
- GI50 (UACC-62): 15.6 µM (inactive)
- GI50 (SF-268): 10.9 µM (inactive)
- GI50 (MDA-N): 16.5 µM (inactive)
- GI50 (SK-MEL-2): 40.5 µM (inactive)
- GI50 (NCI-H226): 24.9 µM (inactive)
- GI50 (Hs-578T): 17.1 µM (inactive)
- GI50 (OVCAR-5): 29.6 µM (inactive)
- GI50 (SK-MEL-5): 23.2 µM (inactive)
- GI50 (UO-31): 32.4 µM (inactive)
- GI50 (NCI-H23): 28.5 µM (inactive)
- GI50 (ACHN): 27.7 µM (inactive)
- GI50 (PC-3): 27 µM (inactive)
- GI50 (BT-549): 32.5 µM (inactive)
- GI50 (HCC 2998): 14.8 µM (inactive)
- GI50 (HT-29): 17.9 µM (inactive)
- GI50 (CCRF-CEM): 11.1 µM (inactive)
- GI50 (SW-620): 24.5 µM (inactive)
- GI50 (SN12C): 19.4 µM (inactive)
- GI50 (CAKI-1): 40.6 µM (inactive)
- GI50 (HCT-116): 16.4 µM (inactive)
- GI50 (NCI-H460): 14.8 µM (inactive)
- GI50 (T47D): 4.42 µM (inactive)
- GI50 (SF-539): 20.1 µM (inactive)
- GI50 (HOP-92): 18.2 µM (inactive)
- GI50 (M14): 14.4 µM (inactive)
- GI50 (MDA-MB-231): 26.1 µM (inactive)
- GI50 (786-0): 32.9 µM (inactive)
- GI50 (K562): 17.9 µM (inactive)
- GI50 (MCF7): 15.6 µM (inactive)
- GI50 (UACC-257): 30.1 µM (inactive)
- GI50 (HCT-15): 18.2 µM
- GI50 (IGROV-1): 14.5 µM (inactive)
- GI50 (OVCAR-8): 27.5 µM (inactive)
- GI50 (TK-10): 28.1 µM (inactive)
- GI50 (NCI/ADR-RES): 21.9 µM (inactive)
- GI50 (U-251): 25 µM (inactive)
- GI50 (A498): 26.2 µM (inactive)
- GI50 (MDA-MB-435): 18.3 µM (inactive)
- GI50 (SK-OV-3): 27.4 µM (inactive)
- GI50 (SK-MEL-28): 36 µM (inactive)
- GI50 (A549): 25.3 µM (inactive)
- GI50 (OVCAR-4): 29.4 µM (inactive)
- GI50 (NCI-H522): 21.9 µM (inactive)
- GI50 (Malme-3M): 18.8 µM (inactive)

SMILES: CC(C)=CCc1[nH]c2ccccc2c1C1=C(O)C(=O)C(c2c(CC=C(C)C)[nH]c3ccccc23)=C(O)C1=O
- GI50 (RPMI-8226): 2.3 µM (inactive)
- GI50 (DU-145): 2.39 µM (inactive)
- GI50 (RXF 393): 1.75 µM (inactive)
- GI50 (HOP-62): 0.815 µM (active)
- GI50 (SF-295): 1.03 µM (active)
- GI50 (COLO 205): 1.63 µM (inactive)
- GI50 (SR): 1.17 µM (inactive)
- GI50 (KM12): 1.04 µM (active)
- GI50 (OVCAR-3): 1.48 µM (inactive)
- GI50 (MOLT-4): 1.96 µM (inactive)
- GI50 (SNB-75): 0.604 µM (active)
- GI50 (UACC-62): 0.377 µM (active)
- GI50 (SF-268): 0.409 µM (active)
- GI50 (SNB-19): 2.03 µM (inactive)
- GI50 (MDA-N): 1.04 µM (active)
- GI50 (SK-MEL-2): 1.64 µM (inactive)
- GI50 (NCI-H226): 1.73 µM (inactive)
- GI50 (Hs-578T): 1.04 µM (active)
- GI50 (OVCAR-5): 2.89 µM (inactive)
- GI50 (SK-MEL-5): 1.76 µM (inactive)
- GI50 (UO-31): 1.49 µM (inactive)
- GI50 (NCI-H23): 1.91 µM (inactive)
- GI50 (ACHN): 1.56 µM (inactive)
- GI50 (PC-3): 1.83 µM (inactive)
- GI50 (BT-549): 0.419 µM (active)
- GI50 (HCC 2998): 1.01 µM (active)
- GI50 (HT-29): 2.22 µM (inactive)
- GI50 (CCRF-CEM): 1.03 µM (active)
- GI50 (SW-620): 3.27 µM (inactive)
- GI50 (SN12C): 1.26 µM (inactive)
- GI50 (CAKI-1): 1.73 µM (inactive)
- GI50 (HCT-116): 1.5 µM (inactive)
- GI50 (NCI-H460): 1.34 µM (inactive)
- GI50 (T47D): 2.76 µM (inactive)
- GI50 (HOP-92): 1.12 µM (inactive)
- GI50 (M14): 3.24 µM (inactive)
- GI50 (MDA-MB-231): 1.28 µM (inactive)
- GI50 (786-0): 1.56 µM (inactive)
- GI50 (K562): 0.989 µM (active)
- GI50 (EKVX): 2.19 µM (inactive)
- GI50 (MCF7): 2.26 µM (inactive)
- GI50 (LOX IMVI): 1.43 µM (inactive)
- GI50 (UACC-257): 2.12 µM (inactive)
- GI50 (HCT-15): 1.33 µM
- GI50 (IGROV-1): 0.573 µM (active)
- GI50 (OVCAR-8): 1.53 µM (inactive)
- GI50 (NCI/ADR-RES): 2.7 µM (inactive)
- GI50 (U-251): 0.587 µM (active)
- GI50 (A498): 1.21 µM (inactive)
- GI50 (MDA-MB-435): 0.608 µM (active)
- GI50 (SK-OV-3): 2.11 µM (inactive)
- GI50 (SK-MEL-28): 0.757 µM (active)
- GI50 (HL-60): 2.19 µM (inactive)
- GI50 (A549): 0.587 µM (active)
- GI50 (OVCAR-4): 3.58 µM (inactive)
- GI50 (NCI-H522): 2.2 µM (inactive)
- GI50 (Malme-3M): 0.628 µM (active)
